One molecule from EP0198172A1, “Pharmaceutical preparation” (HERMES Fabrik pharmazeutischer Präparate Franz Gradinger …, priority 1985, dated 1986) can be followed below.

Molecules are shown by their SMILES.

This assay relates to Patienten. The experiment in a line: Double-blind crossover clinical study, impedance cardiography (I.C.) in six patients. In kind it is in vivo, Menschen. An excerpt:
Im folgenden werden klinische Versuche am Menschen beschrieben, die die Wirkungen der erfindungsgemäßen pharmazeutischen Zubereitung zeigen: • Tabelle 1 zeigt in schematischer Darstellung eine Doppel-Blind-Studie mit der erfindungsgemäßen pharmazeutischen Zubereitung.
Dabei bedeutet "I.C."Impedanz Cardiographie.
Zur Durchführung der Impedanz Cardiographie wird insbesondere verwiesen auf "Biomedical and clinical aspects for coenzyme Q, Volume 1 (1977) Volume 2 (1980), Volume 3 (1981), Volume 4 (1984), Elsevier/North-Holland Biomedical Press, Amsterdam-New York-Oxford" und auf Lee E. Baker (ebenda, Vol. 2,.Seite 289) und schließlich W.G. Kubicek, Aerospace Med. 37 (12), 1208, 1966.
Die Wirkungen der erfindungsgemäßen pharmazeutischen Zubereitung auf das Herz-Schlag-Volumen (SV), das Herz-Zeit-Volumen (CO) und den Heather Index (HI) von sechs Patienten wurden ermittelt und in der folgenden Tabelle 2 zusammengestellt.
Den sechs Patienten wurden gemäß Tabelle II gegeben: • CoQ10 : 3 x 33 mg = 99 mg täglich • Placebo : Oleum arachidis Vol.(eine Kapsel 0,5 ml) • CoQ10 + Vitamin E : (3 x 33 mg) + (3 x 100 mg) zusammen in 3 Kapseln täglich gelöst in Oleum arachidis • Vitamin E : 3 x 100 mg täglich (= 3 Kapseln . täglich). [formula]

The mark [1] stands for this setting: oral capsules daily, impedance cardiography, result in words.

As for `COC1=C(OC)C(=O)C(C/C=C(\C)CC/C=C(\C)CC/C=C(\C)CC/C=C(\C)CC/C=C(\C)CC/C=C(\C)CC/C=C(\C)CC/C=C(\C)CC/C=C(\C)CCC=C(C)C)=C(C)C1=O` [CoQ10, 2.3-Dimethoxy-5-methyl-1.4-benzochinon mit einer isoprenoiden Seitenkette, mit 10 Dihydroisopren-Einheiten], the “Steigerung des Herzminutenvolumens (CO)” value (oral capsules daily (CoQ10 3 x 33 mg; combination 3 x 33 mg + 3 x 100 mg Vitamin E), versus controls, placebo and Vitamin E alone) is around 20%. For the same molecule, under setting [1], the “Heather Index (HI)” value is reported as “Ähnliches gilt” and the “Schlagvolumen (SV)” value is on record as “Ähnliches gilt”.
